Data from patent publication US20220409526A1 (Retina Foundation Of The Southwest, priority 2019, published 2022).

Columns and labels:
ARPE-19 cells [1] = assay: in vitro; format: cell-based, human; details: then 500 μM HQ for 16 hours
Protocol: ARPE-19 cells were grown in DMEM:F-12 supplemented with 10% fetal bovine serum (FBS). For all experiments these cells were split and grown in 6-well plates using MEM-Nic supplemented with 1% FBS according to a previously published procedure.^33 Cells used for all the experiments were between passages 25-30. For all experiments, the 96 well plates and 8-well slides were coated with 0.039 mg/mL collagen I at 6 μg/cm^2. The cells were seeded at a cell density of 70,000 cells/well and 150,000 cells/well using MEM-Nic media for 96 well plates and 8 well slides, respectively. Once the cells are confluent, media was replaced with MEM a, GlutaMAX™, supplemented with 1% FBS for 24 hours before carrying out assay protocols. Exposure to NAC alkyl-ester prodrugs were carried out in MEM a, GlutaMAX™, supplemented with 1% FBS and treatment with HQ was carried out in serum free DMEM:F-12.
ARPE-19 Cell viability assays were carried out using XTT/PMS reagent mixtures according to standard procedures known in the art (see Celis, J. E.; Carter, N., Cell Biology: A Laboratory Handbook. Elsevier Science: 2005). Corresponding absorbance readings were obtained using a plate reader at 450 and 660 nm.
A dose dependent study was first carried out for ARPE-19 cells using HQ concentrations varying from 100-1000 μM. Cells were then incubated at 37° C., 5% CO2 for 16 hours. HQ doses of less than 400 μM were non-lethal. Using 500 μM HQ for 16 hours gave a cell viability of ˜60%.
To evaluate the ability of the NAC alkyl-ester analogues to provide cellular protection against oxidative stress, cells were treated with 0.05 mM of NAC, NACME, NACEE, NACPE and NACBE for 2, 24 and 48 hours. Treated cells were then exposed to 500 μM HQ for 16 hours. HQ solutions were removed and replaced with DMEM:F-12 supplemented with 1% FBS, and followed by the addition of XTT (2,3-bis-(2-methoxy-4-nitro-5-sulfophenyl)-2H-tetrazolium-5-carboxanilide) and PMS (phenazine methyl sulfate).
To compare the effectiveness of NACBE and NAC in protecting against oxidative damage, another dose dependent study was carried out by varying the pretreatment concentration from 0.001 mM to 1.0 mM. […] Whereas for NAC, to reach the same cell viability, 0.5 mM concentration was needed (10× times that of NACBE).

ARPE-19 cells [2] = assay: ZO-1 staining of cellular junctions; format: cell-based, human
Protocol: ARPE-19 cells were grown on an 8-well slide until confluent. The cells were exposed to 1 mM NAC and NACBE for 24 hours, followed by treatment with 500 μM of HQ for 2 hours. The cells were washed with 3 cycles of PBS, and then fixed with 4% Paraformaldehyde at 4° C. for 30 mins. After fixation the cells were blocked in PBST (0.2% Triton X-100)+1% BSA for 60 mins. Primary antibody (rabbit anti-Zo-1, Invitrogen) was diluted 1/100 in PBST+1% BSA and added overnight at […]. Cells were washed ×3 with PBS and secondary antibody (Donkey anti-Rabbit AF-555, Abcam) was added for 4 hours at RT. Cells were washed ×3 with PBS and mounted with Prolong Diamond Mountant with DAPI (Invitrogen).

ARPE-19 cells [3] = assay: GSH assay (Promega GSH/GSSG-Glo); format: cell-based, human; details: 1 mM for 24 hours
Protocol: The production of cellular GSH levels upon exposure to drugs were measured using the GSH assay kit. NACA and GSH-EE were used as controls in this assay. ARPE-19 cells were grown in white 96 well plates. The cells were exposed to 1 mM solutions of NAC, NACME, NACEE, NACPE, NACBE, NACA and glutathione ethyl ester (GSH-EE) for 24 hours. The solutions were removed and washed with PBS once. Afterwards, GSH assay was carried out according to manufacturer recommended protocol (Promega GSH/GSSG-Glo™) and luminescence readings were obtained with a luminometer, which a higher luminescence intensity indicates a higher GSH concentration.

[4] = system: mitochondrial DNA of ARPE-19 cells; assay: DNA fragmentation assay (long-extension PCR of mitochondrial DNA); format: cell-based, human; details: pretreatment for 24 hours (1 mM), then 500 uM HQ for 24 hours
Protocol: Mitochondrial DNA damage has been linked to pathogenic diseases, including AMD. To determine if pretreatment of RPE cells with NAC alkyl-ester analogues could protect mitochondrial DNA against oxidative damage, a long-extension PCR based assay was used to measure amplification of a large stretch of mitochondrial DNA. The mitochondrial DNA damage assay was performed according to protocols known to those in the art (see Santos, J. H.; Mandavilli, B. S.; Van Houten, B., Measuring Oxidative mtDNA Damage and Repair Using Quantitative PCR. In Mitochondrial DNA: Methods and Protocols, Copeland, W. C., Ed. Humana Press: Totowa, N.J., 2002; pp 159-176). Briefly, ARPE-19 cells were grown to confluency in 6-well plates. The cells were treated with NAC alkyl-ester analogues for 24 hours, washed and then treated with 500 uM HQ for an additional 24 hours. DNA was isolated from the treated cells with a QIAamp DNA mini kit (Qiagen). The DNA samples were diluted to 3 ng/μl for use in PCR reactions. PCR products were quantified using the Quant-iT Picogreen dsDNA Assay kit (Invitrogen). The relative amplification of the large band was normalized to untreated cells. The amplification of the small mitochondrial band was used to normalize the data obtained from the large band to account for mitochondrial DNA copy number.

ARPE-19 cells [5] = assay: JC-1 staining (confocal); details: 1 mM pretreatment for 24 hours, then 50 μM HQ for 4 hours
Excerpt: The cells were imaged on the confocal (Zeiss LSM 800) by excitation with the 488 nm laser and emission imaged at 530 nm (green channel) and 590 nm (red channel).

CCCCOC(=O)[C@H](CS)NC(C)=O [NACBE, N-acetylcysteine butyl ester]
change in cell viability upon exposure to HQ (ARPE-19 cells [1]; 0.05 mM pretreatment for 24 and 48 hours, compared to NAC and the control): comparatively a higher cell viability
change in cell viability upon exposure to HQ (ARPE-19 cells [1]; 0.05 mM pretreatment for 2 hours): marginal effect
pretreatment concentration at which 100% cell viability was obtained (ARPE-19 cells [1]; pretreatment 0.001-1.0 mM for 24 hours): 0.05 mM
ZO-1 staining of cell-cell junctions (ARPE-19 cells [2]; 1 mM for 24 hours, without HQ): proper cell-cell junctions
ZO-1 staining of cellular junctions after exposure to HQ (ARPE-19 cells [2]; 1 mM pretreatment for 24 hours, then 500 μM HQ for 2 hours): intact
cellular GSH level (luminescence) compared to untreated cells (ARPE-19 cells [3]): produced the highest amounts of GSH
protection of mitochondrial DNA amplification against HQ [4]: keep the PCR amplification of the mitochondrial DNA intact
mitochondrial membrane potential after HQ (JC-1 staining) (ARPE-19 cells [5]): preserved the mitochondrial membrane potential
